Experimental findings from patent publication US8513238B2 (Hoffmann-La Roche Inc., priority 2010, dated 2013) are described below.

Structures can show the parent of a compound that is named as a salt.

The assay deals with T1, human V1a receptor (Homo sapiens, UniProt P37288).
T1 construct: expressed in transfected cells; host or cells: HEK293 cells, transiently transfected; membranes prepared
T1 sequence (P37288 whole entry): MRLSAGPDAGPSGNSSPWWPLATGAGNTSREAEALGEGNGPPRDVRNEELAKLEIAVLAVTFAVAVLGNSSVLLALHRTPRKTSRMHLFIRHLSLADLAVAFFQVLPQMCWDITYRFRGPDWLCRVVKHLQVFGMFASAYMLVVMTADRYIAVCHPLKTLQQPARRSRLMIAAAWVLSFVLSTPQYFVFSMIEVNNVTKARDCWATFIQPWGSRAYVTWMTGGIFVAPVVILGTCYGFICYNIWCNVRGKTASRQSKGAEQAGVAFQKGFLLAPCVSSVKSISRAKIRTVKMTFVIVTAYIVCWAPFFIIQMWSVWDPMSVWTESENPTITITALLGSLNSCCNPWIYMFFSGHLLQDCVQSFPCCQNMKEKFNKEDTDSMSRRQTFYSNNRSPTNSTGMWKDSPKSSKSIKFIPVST
As to the kind of experiment: human V1a receptor binding (3H-Vasopressin SPA, HEK293 membranes). As to conditions: membranes of HEK293 cells transiently transfected with human V1a receptor, Ki by Cheng-Prussoff, read-out: pKi (hV1a) (converted). The procedure:
The human V1a receptor was cloned by RT-PCR from total human liver RNA. The coding sequence was subcloned in an expression vector after sequencing to confirm the identity of the amplified sequence. […] Cell membranes were prepared from HEK293 cells transiently transfected with the expression vector and grown in 20 liter fermenters with the following protocol.
50 g of cells are resuspended in 30 ml freshly prepared ice cold Lysis buffer (50 mM HEPES, 1 mM EDTA, 10 mM magnesium dichloride adjusted to pH=7.4+complete cocktail of protease inhibitor (Roche Diagnostics)). Homogenized with Polytron for 1 min and sonicated on ice for 2×2 minutes at 80% intensity (Vibracell sonicator). The preparation is centrifuged 20 min at 500 g at 4° C., the pellet is discarded and the supernatant centrifuged 1 hour at 43,000 g at 4° C. (19,000 rpm). The pellet is resuspended in 12.5 ml Lysis buffer+12.5 ml sucrose 20% and homogenized using a Polytron for 1-2 min. The protein concentration is determined by the Bradford method and aliquots are stored at −80° C. until use. For binding studies 60 mg Yttrium silicate SPA beads (Amersham®) are mixed with an aliquot of membrane in binding buffer (50 mM Tris, 120 mM sodium chloride, 5 mM potassium chloride, 2 mM calcium dichloride, 10 mM magnesium dichloride) for 15 minutes with mixing. 50 μl of bead/membrane mixture is then added to each well of a 96 well plate, followed by 50 μl of 4 nM 3H-Vasopressin (American Radiolabeled Chemicals). For total binding measurement 100 μl of binding buffer are added to the respective wells, for non-specific binding 100 μl of 8.4 mM cold vasopressin and for compound testing 100 μl of a serial dilution of each compound in 2% dimethyl sulfoxide. The plate is incubated 1 h at room temperature, centrifuged 1 min at 1000 g and counted on a Packard Top-Count. Non-specific binding counts are subtracted from each well and data is normalized to the maximum specific binding set at 100%. To calculate an IC50 the curve is fitted using a non-linear regression model (XLfit) and the Ki is calculated using the Cheng-Prussoff equation.
As to `Cc1nc([C@H]2CC[C@H](c3nnc4n3-c3ccc(Cl)cc3CN(C)C4)CC2)ns1` (stereo in doubt) [Example 97, trans-8-Chloro-5-methyl-1-[4-(5-methyl-[1,2,4]thiadiazol-3-yl)-cyclohexyl]-5,6-dihydro-4H-2,3,5,10b-tetraaza-benzo[e]azulene], the Ki was 2.88 nM. As to `Cc1noc([C@H]2CC[C@H](c3nnc4n3-c3ccc(Cl)cc3CN(C(=O)OC(C)(C)C)C4)CC2)n1` [Example 66, trans-8-Chloro-1-[4-(3-methyl-[1,2,4]oxadiazol-5-yl)-cyclohexyl]-4H,6H-2,3,5,10b-tetraaza-benzo[e]azulene-5-carboxylic acid tert-butyl ester], the Ki is 2.88 nM. In the case of `CC(C)(C)OC(=O)N1Cc2cc(Cl)ccc2-n2c(nnc2[C@H]2CC[C@H](c3nccs3)CC2)C1` [Example 13, trans-8-Chloro-1-(4-thiazol-2-yl-cyclohexyl)-4H,6H-2,3,5,10b-tetraaza-benzo[e]azulene-5-carboxylic acid tert-butyl ester], the Ki is 1 nM. With `Cc1cc([C@H]2CC[C@H](c3nnc4n3-c3ccc(F)cc3CNC4)CC2)no1` [Example 37, trans-8-Fluoro-1-[4-(5-methyl-isoxazol-3-yl)-cyclohexyl]-5,6-dihydro-4H-2,3,5,10b-tetraaza-benzo[e]azulene], the Ki was 91.2 nM. Regarding `Cc1nc([C@H]2CC[C@H](c3nnc4n3-c3ccc(Cl)cc3CN(C)C4)CC2)no1` [Example 74, trans-8-Chloro-5-methyl-1-[4-(5-methyl-[1,2,4]oxadiazol-3-yl)-cyclohexyl]-5,6-dihydro-4H-2,3,5,10b-tetraaza-benzo[e]azulene], the Ki is 3.24 nM. As for `CC(C)c1nc([C@H]2CC[C@H](c3nnc4n3-c3ccc(Cl)cc3CN(C)C4)CC2)no1` [Example 94], the Ki was 19.5 nM.

Take `Cc1nsc([C@H]2CC[C@H](c3nnc4n3-c3ccc(Cl)cc3CNC4)CC2)n1` [Example 70, trans-8-Chloro-1-[4-(3-methyl-[1,2,4]thiadiazol-5-yl)-cyclohexyl]-5,6-dihydro-4H-2,3,5,10b-tetraaza-benzo[e]azulene]: the Ki was 129 nM.

On to `Cc1nsc([C@H]2CC[C@H](c3nnc4n3-c3ccc(Cl)cc3CN(C(=O)OC(C)(C)C)C4)CC2)n1` [Example 69, trans-8-Chloro-1-[4-(3-methyl-[1,2,4]thiadiazol-5-yl)-cyclohexyl]-4H,6H-2,3,5,10b-tetraaza-benzo[e]azulene-5-carboxylic acid tert-butyl ester], for which the Ki is 1.51 nM.

Take `CN1Cc2cc(Cl)ccc2-n2c(nnc2[C@H]2CC[C@@H](c3noc4c3CCCC4)CC2)C1` [Example 59, cis-8-Chloro-5-methyl-1-[4-(4,5,6,7-tetrahydro-benzo[d]isoxazol-3-yl)-cyclohexyl]-5,6-dihydro-4H-2,3,5,10b-tetraaza-benzo[e]azulene]: the Ki was 8.13 nM.

As for `Clc1ccc2c(c1)CNCc1nnc([C@H]3CC[C@@H](c4noc5c4CCCC5)CC3)n1-2` [Example 58, cis-8-Chloro-1-[4-(4,5,6,7-tetrahydro-benzo[d]isoxazol-3-yl)-cyclohexyl]-5,6-dihydro-4H-2,3,5,10b-tetraaza-benzo[e]azulene], the Ki is 191 nM. In the case of `Cc1onc([C@H]2CC[C@H](c3nnc4n3-c3ccc(Cl)cc3CNC4)CC2)c1Cl` [Example 43, trans-8-Chloro-1-[4-(4-chloro-5-methyl-isoxazol-3-yl)-cyclohexyl]-5,6-dihydro-4H-2,3,5,10b-tetraaza-benzo[e]azulene], the Ki is 5.89 nM. Consider `CC(C)c1nc([C@H]2CC[C@@H](c3nnc4n3-c3ccc(Cl)cc3CNC4)CC2)no1` [Example 95, cis-8-Chloro-1-[4-(5-isopropyl-[1,2,4]oxadiazol-3-yl)-cyclohexyl]-5,6-dihydro-4H-2,3,5,10b-tetraaza-benzo[e]azulene hydrochloride], for which the Ki was 2950 nM. Consider `CC(C)(C)OC(=O)N1Cc2cc(Cl)ccc2-n2c(nnc2[C@H]2CC[C@H](c3onc4c3CCCC4)CC2)C1` [Example 60, trans-8-Chloro-1-[4-(4,5,6,7-tetrahydro-benzo[c]isoxazol-3-yl)-cyclohexyl]-4H,6H-2,3,5,10b-tetraaza-benzo[e]azulene-5-carboxylic acid tert-butyl ester], for which the Ki was 15.5 nM.

Consider `Cc1cnc([C@H]2CC[C@H](c3nnc4n3-c3ccc(Cl)cc3CN(C)C4)CC2)o1` [Example 9, trans-8-Chloro-5-methyl-1-[4-(5-methyl-oxazol-2-yl)-cyclohexyl]-5,6-dihydro-4H-2,3,5,10b-tetraaza-benzo[e]azulene], for which the Ki was 2.19 nM. For `CC(C)(C)OC(=O)N1Cc2cc(Cl)ccc2-n2c(nnc2[C@H]2CC[C@@H](n3cccn3)CC2)C1` [Example 112, cis-8-Chloro-1-(4-pyrazol-1-yl-cyclohexyl)-4H,6H-2,3,5,10b-tetraaza-benzo[e]azulene-5-carboxylic acid tert-butyl ester], the Ki is 75.9 nM. Consider `Cc1cc(C)n([C@H]2CC[C@H](c3nnc4n3-c3ccc(Cl)cc3CN(C(=O)OC(C)(C)C)C4)CC2)n1` [Example 115, trans-8-Chloro-1-[4-(3,5-dimethyl-pyrazol-1-yl)-cyclohexyl]-4H,6H-2,3,5,10b-tetraaza-benzo[e]azulene-5-carboxylic acid tert-butyl ester], for which the Ki was 0.17 nM.

Consider `Cc1cc([C@H]2CC[C@H](c3nnc4n3-c3ccc(Cl)cc3CN(C(=O)CN(C)C)C4)CC2)no1` [Example 33, trans-1-{8-Chloro-1-[4-(5-methyl-isoxazol-3-yl)-cyclohexyl]-4H,6H-2,3,5,10b-tetraaza-benzo[e]azulen-5-yl}-2-dimethylamino-ethanone hydroformate], for which the Ki is 2 nM.

On to `Cc1nn([C@H]2CC[C@H](c3nnc4n3-c3ccc(Cl)cc3CNC4)CC2)c(C)c1C` [Example 119, trans-8-Chloro-1-[4-(3,4,5-trimethyl-pyrazol-1-yl)-cyclohexyl]-5,6-dihydro-4H-2,3,5,10b-tetraaza-benzo[e]azulene], for which the Ki was 2.19 nM. For `Cc1nc([C@H]2CC[C@@H](c3nnc4n3-c3ccc(Cl)cc3CNC4)CC2)no1` [Example 83, cis-8-Chloro-1-[4-(5-methyl-[1,2,4]oxadiazol-3-yl)-cyclohexyl]-5,6-dihydro-4H-2,3,5,10b-tetraaza-benzo[e]azulene hydrochloride] the value was 617 nM; for `Cc1nc([C@H]2CC[C@H](c3nnc4n3-c3ccc(Cl)cc3CN(C)C4)CC2)cs1` [Example 21, trans-8-Chloro-5-methyl-1-[4-(2-methyl-thiazol-4-yl)-cyclohexyl]-5,6-dihydro-4H-2,3,5,10b-tetraaza-benzo[e]azulene], 1.7 nM; for `CCc1nc([C@H]2CC[C@@H](c3nnc4n3-c3ccc(Cl)cc3CN(C)C4)CC2)no1` [Example 90], 295 nM. For `Cc1nc([C@H]2CC[C@H](c3nnc4n3-c3ccc(Cl)cc3CN(CC(F)F)C4)CC2)no1` [Example 79, trans-8-Chloro-5-(2,2-difluoro-ethyl)-1-[4-(5-methyl-[1,2,4]oxadiazol-3-yl)-cyclohexyl]-5,6-dihydro-4H-2,3,5,10b-tetraaza-benzo[e]azulene] the value was 3.39 nM; for `CN1Cc2cc(Cl)ccc2-n2c(nnc2[C@H]2CC[C@H](c3nccs3)CC2)C1` [Example 15, trans-8-Chloro-5-methyl-1-(4-thiazol-2-yl-cyclohexyl)-5,6-dihydro-4H-2,3,5,10b-tetraaza-benzo[e]azulene], 3.31 nM.
